pEC50: −log10 of the molar value. Square brackets hold non-standard residues; d marks the D form. Peptide text beside a SMILES is read from it. αMeF = C[C@](N)(Cc1ccccc1)C(=O)O; Aib = CC(C)(N)C(=O)O
Columns and labels:
human GIPR = target: T1, human GIPR (Homo sapiens, UniProt P48546); assay: Agonist activity against human GIPR, CRE-luciferase reporter assay (rise in intracellular cAMP) in hGIPR/CRE-LUC/CHO-K1 cells; type: cell-based; details: hGIPR/CRE-LUC/CHO-K1 cells, 4 hours incubation; 10 nM GIP = 100%; read-out: Agonist activity (EC50) hGIPR
T1 construct: expressed in transfected cells; host or cells: CHO-K1 (CRE-LUC/CHO-K1), plasmid hGIPR/pMSRα-neo
T1 sequence (P48546 22-466): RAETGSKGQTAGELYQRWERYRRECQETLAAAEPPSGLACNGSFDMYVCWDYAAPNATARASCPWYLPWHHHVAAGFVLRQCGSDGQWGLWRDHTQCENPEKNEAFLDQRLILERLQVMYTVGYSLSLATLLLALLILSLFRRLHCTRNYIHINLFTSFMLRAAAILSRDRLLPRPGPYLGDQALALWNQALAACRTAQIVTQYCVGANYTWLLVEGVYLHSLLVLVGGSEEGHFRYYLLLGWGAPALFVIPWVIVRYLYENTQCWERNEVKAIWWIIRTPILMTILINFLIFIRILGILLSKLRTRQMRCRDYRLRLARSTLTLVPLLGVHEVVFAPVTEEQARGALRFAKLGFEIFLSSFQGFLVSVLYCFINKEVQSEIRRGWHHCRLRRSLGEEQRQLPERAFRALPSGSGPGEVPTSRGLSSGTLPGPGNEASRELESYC

human GLP-1R = target: T2, human GLP-1R (Homo sapiens, UniProt P43220); assay: Agonist activity against human GLP-1R, CRE-luciferase reporter assay in hGLP-1R/CRE-luc/CHO-K1 cells; type: cell-based; details: hGLP-1R/CRE-luc/CHO-K1 cells, 4 hours incubation; 10 nM GLP-1 = 100%; read-out: Agonist activity (EC50) hGLP-1R
T2 construct: expressed in transfected cells; host or cells: CHO-K1, plasmids hGLP-1/pIRESneo3 and Cre-luc(Zeo)
T2 sequence (P43220 24-463): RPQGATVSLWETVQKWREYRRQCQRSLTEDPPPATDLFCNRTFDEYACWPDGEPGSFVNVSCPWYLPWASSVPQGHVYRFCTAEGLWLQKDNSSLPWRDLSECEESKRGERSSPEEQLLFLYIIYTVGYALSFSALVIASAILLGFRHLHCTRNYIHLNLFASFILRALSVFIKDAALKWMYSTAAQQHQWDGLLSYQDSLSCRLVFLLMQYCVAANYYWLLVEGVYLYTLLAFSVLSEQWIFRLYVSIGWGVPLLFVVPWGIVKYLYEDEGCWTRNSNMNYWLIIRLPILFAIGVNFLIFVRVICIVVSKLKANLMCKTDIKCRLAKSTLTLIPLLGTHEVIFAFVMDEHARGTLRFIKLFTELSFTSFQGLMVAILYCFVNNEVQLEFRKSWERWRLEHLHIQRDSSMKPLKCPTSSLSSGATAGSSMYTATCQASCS

human glucagon R = target: T3, human glucagon R (Homo sapiens, UniProt P47871); assay: Agonist activity against human glucagon R, CRE-luciferase reporter assay in hGlucagonR/CRE-LUC/CHO-K1 cells; type: cell-based; details: hGlucagonR/CRE-LUC/CHO-K1 cells, 4 hours incubation; 10 nM glucagon = 100%; read-out: Agonist activity (EC50) hGCGR
T3 construct: expressed in transfected cells; host or cells: CHO-K1 (CRE-LUC/CHO-K1), plasmid hGlucagonR/pMSRα-neo
T3 sequence (P47871 26-477): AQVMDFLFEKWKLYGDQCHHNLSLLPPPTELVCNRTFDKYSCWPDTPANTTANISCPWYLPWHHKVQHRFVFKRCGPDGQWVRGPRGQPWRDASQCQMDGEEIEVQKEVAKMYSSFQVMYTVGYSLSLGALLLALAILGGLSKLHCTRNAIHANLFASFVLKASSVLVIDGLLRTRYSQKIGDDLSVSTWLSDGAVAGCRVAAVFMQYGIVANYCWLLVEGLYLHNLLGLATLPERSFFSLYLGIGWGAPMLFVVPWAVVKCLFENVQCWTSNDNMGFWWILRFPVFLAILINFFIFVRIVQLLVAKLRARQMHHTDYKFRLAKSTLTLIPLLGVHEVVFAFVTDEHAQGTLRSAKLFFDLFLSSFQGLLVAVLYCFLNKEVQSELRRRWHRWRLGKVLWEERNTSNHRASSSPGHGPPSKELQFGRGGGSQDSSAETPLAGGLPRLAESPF

[1] = Solubility test in Britton-Robinson buffer, observed visually; type: physicochemical
Procedure: The test compound of approximately 2 mg was measured precisely. Solvents (10 μL, 20 μL or 40 μL) with different pH (Britton-Robinson buffer (pH 3, 5, 7, 9)) were added to each test compound at 25° C., and the solubility was observed visually.

For `CC(C)C[C@H](NC(=O)[C@H](CC(C)C)NC(=O)[C@H](Cc1c[nH]c2ccccc12)NC(=O)[C@H](CCCCN)NC(=O)[C@@H](NC(=O)[C@H](Cc1ccccc1)NC(=O)[C@H](CCC(=O)O)NC(=O)[C@H](C)NC(=O)[C@H](CCC(N)=O)NC(=O)[C@H](C)NC(=O)[C@H](CCC(N)=O)NC(=O)[C@H](CCCCN)NC(=O)[C@H](CC(=O)O)NC(=O)[C@H](CC(C)C)NC(=O)[C@H](Cc1ccc(O)cc1)NC(=O)[C@H](CCCCN)NC(=O)C(C)(C)NC(=O)[C@H](Cc1ccc(O)cc1)NC(=O)[C@H](CC(=O)O)NC(=O)[C@H](CO)NC(=O)[C@@H](NC(=O)[C@](C)(Cc1ccccc1)NC(=O)[C@@H](NC(=O)CNC(=O)[C@H](CCC(=O)O)NC(=O)C(C)(C)NC(=O)[C@@H](N)Cc1ccc(O)cc1)[C@@H](C)O)[C@@H](C)O)C(C)C)C(=O)N[C@@H](CCCCN)C(=O)NCC(=O)NCC(=O)N1CCC[C@H]1C(=O)N[C@@H](CO)C(=O)N[C@@H](CO)C(=O)NCC(=O)N[C@@H](C)C(=O)N1CCC[C@H]1C(=O)N1CCC[C@H]1C(=O)N1CCC[C@H]1C(=O)N[C@@H](CO)C(=O)N[C@@H](CCCCN)C(N)=O` [Example 24] (H-Y[Aib]EGT[αMeF]TSDY[Aib]KYLDKQAQAEFVKWLLKGGPSSGAPPPSK-NH2), the pEC50 (human GIPR) was 11.00, the pEC50 (human GLP-1R) was 10.96 and the pEC50 (human glucagon R) was < 6.00. The solubility ([1]; pH 3) was > 200 mg/mL, the solubility ([1]; pH 5) was > 200 mg/mL and the solubility ([1]; pH 7) was > 200 mg/mL. For the same compound, the solubility ([1]; pH 9) was > 200 mg/mL.

From patent US9200051B2, “Peptide compound” (TAKEDA PHARMACEUTICAL COMPANY LIMITED, priority 2013, dated 2015)
